Experimental data taken from patent US6596687B1, “Cell adhesion inhibitors” (Biogen, Inc., priority 1995, dated 2003).
Numbered stars: 1 amine (or outer) side, 2 acyl side, 3 side chain; on linkers, the order of the positions; unused ones are H or OH. Square brackets hold non-standard residues; d marks the D form. Peptide text beside a SMILES is read from it. * marks the point of attachment. X3 = COc1cc(CC(=O)[*:2])ccc1N[*:1]; Boc = CC(C)(C)OC(=O)*; CO = O=C([*:1])[*:2]; NHBn = c1ccc(CN*)cc1; NHPh = c1ccc(N*)cc1

Target: T1, VLA4 (Homo sapiens, UniProt P05556+P13612)
T1 construct: endogenous in cells; host or cells: Ramos cells
Test: Inhibition of VLA4-dependent adhesion of Ramos cells to BSA-CS1
Assay type: cell-based
Conditions: Ramos cells, BSA-CS1 coated wells, 2 mM MnCl2, 30 minutes at room temperature; read-out: IC50
From the text: For example, the cell adhesion inhibitory activity of these compounds may be measured by determining the concentration of inhibitor required to block the binding of VLA-4-expressing cells to fibronectin- or CS1-coated plates. In this assay microtiter wells are coated with either fibronectin (containing the CS1-sequence) or CS-1. If CS-1 is used, it must be conjugated to a carrier protein, such as bovine serum albumin, in order to bind to the wells. Once the wells are coated, varying concentrations of the test compound are then added together with appropriately labelled, VLA-4-expressing cells. Alternatively, the test compound may be added first and allowed to incubate with the coated wells prior to the addition of the cells. The cells are allowed to incubate in the wells for at least 30 minutes. Following incubation, the wells are emptied and washed. Inhibition of binding is measured by quantitating the fluorescence or radioactivity bound to the plate for each of the various concentrations of test compound, as well as for controls containing no test compound.
VLA-4-expressing cells that may be utilized in this assay include Ramos cells, Jurkat cells, A375 melanoma cells, as well as human peripheral blood lymophocytes (PBLs). The cells used in this assay may be fluorescently or radioactively labelled.
This assay was used to assess the potency of VLA4-directed inhibitory compounds of this invention. 1.
We dissolved BSA-SMCC (Pierce Chemical, Rockford, Ill.; Catalog #77115) in H2O at a concentration of 10 mg/mL. [SEQ ID NO:4]: […](“Cys-Tyr-CS1 peptide”), which we synthesized by conventional solid phase chemistry and purified by HPLC, was dissolved in 10 mM HEPES pH 5, 50 mM NaCl and 0.1 mM EDTA also at a concentration of 10 mg/mL. We then mixed 500 μL of BSA-SMCC, 250 μL of Cys-Tyr-CS1 peptide and 75 μL of 1 mM HEPES pH 7.5 and allowed the conjugation reaction to proceed for 30 minutes. We stopped the reaction by adding 1 μL of beta-mercaptoethanol. Samples were analyzed for cross-linking by SDS-PAGE.
We coated the wells of a Linbro titertek polystyrene 96-well flat bottom plate (Flow Laboratories, Maclean, Va.; catalog #76-231-05) with 100 μL of the above-described BSA-CS1 solution diluted to 1 μg/mL in 0.05 M NaHCO3 (15 mM NaHCO3, 35 mM Na2CO3) pH 9.2. Some wells were not coated with CS1 in order to assess non-specific cell binding (NSB). The plate was then incubated overnight at 4° C.
Following this incubation, the contents of the wells were removed by inverting and blotting the plate. All of the wells were then blocked with 100 μL of 1% BSA in PBS, 0.02% NaN3, for a minimum of one hour at room temperature.
Ramos cells are grown, maintained and labelled in RPMI 1640 culture medium containing 1% BSA. Just prior to running the assay, we added 2′, 7′-bis-(2-carboxyethyl)-5(and -6)carboxyfluorescein acetoxymethyl ester (“BCECF-AM”; Molecular Probes Inc., Eugene, Oregon; catalog #B-1150) to a final concentration of 2 μM to a culture of Ramos cells (4×10^6 cells/mL). We incubated the cells for 20 minutes at 37° C.
Following labelling, the cells were washed twice in assay buffer (24 mM TRIS, 137 mM NaCl, 2.7 mM KCl, pH 7.4, containing 0.1 BSA and 2mM glucose) to remove any cations originating from the culture medium. The cells were then resuspended in assay buffer to 4×10^6 cells/mL and 2 mM MnCl2 was added to upregulate VLA4 on the surface of the cells.
Immediately prior to running the assay, we removed the BSA blocking solution from the 96-well plates and washed the wells with 100 μL of assay buffer. We then added to each well 25 μL of test cell adhesion inhibitory compound at 2×the final concentration and 25 μL of the labelled Ramos cells. […] Each concentration of compound was tested in triplicate. The compound and cells are allowed to incubate for 30 minutes at room temperature.

T1 sequence (P13612 34-1032): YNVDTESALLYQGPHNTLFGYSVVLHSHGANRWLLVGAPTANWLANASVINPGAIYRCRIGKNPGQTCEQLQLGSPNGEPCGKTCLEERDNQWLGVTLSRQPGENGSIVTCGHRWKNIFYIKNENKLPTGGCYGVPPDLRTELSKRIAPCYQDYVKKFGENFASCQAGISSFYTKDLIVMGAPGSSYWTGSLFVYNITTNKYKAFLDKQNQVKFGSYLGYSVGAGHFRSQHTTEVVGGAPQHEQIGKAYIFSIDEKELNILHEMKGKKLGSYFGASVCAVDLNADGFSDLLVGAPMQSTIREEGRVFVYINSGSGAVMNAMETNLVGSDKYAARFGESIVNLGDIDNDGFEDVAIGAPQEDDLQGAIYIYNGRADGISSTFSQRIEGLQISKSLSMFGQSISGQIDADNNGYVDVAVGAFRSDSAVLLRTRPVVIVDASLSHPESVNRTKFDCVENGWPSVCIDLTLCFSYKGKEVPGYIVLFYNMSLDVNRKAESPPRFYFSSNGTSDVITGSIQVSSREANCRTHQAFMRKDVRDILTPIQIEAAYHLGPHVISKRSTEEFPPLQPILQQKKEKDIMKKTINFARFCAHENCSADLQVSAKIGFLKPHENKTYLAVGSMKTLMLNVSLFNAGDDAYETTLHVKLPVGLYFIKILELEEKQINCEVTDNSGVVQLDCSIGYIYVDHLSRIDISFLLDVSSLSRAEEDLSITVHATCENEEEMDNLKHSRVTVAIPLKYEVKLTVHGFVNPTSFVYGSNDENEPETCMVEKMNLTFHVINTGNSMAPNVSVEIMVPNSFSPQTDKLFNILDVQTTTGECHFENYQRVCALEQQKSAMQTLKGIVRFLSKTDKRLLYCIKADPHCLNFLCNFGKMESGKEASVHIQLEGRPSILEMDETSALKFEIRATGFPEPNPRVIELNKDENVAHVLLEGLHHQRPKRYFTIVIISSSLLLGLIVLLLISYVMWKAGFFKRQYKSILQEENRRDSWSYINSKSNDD
T1 sequence (P05556 21-798): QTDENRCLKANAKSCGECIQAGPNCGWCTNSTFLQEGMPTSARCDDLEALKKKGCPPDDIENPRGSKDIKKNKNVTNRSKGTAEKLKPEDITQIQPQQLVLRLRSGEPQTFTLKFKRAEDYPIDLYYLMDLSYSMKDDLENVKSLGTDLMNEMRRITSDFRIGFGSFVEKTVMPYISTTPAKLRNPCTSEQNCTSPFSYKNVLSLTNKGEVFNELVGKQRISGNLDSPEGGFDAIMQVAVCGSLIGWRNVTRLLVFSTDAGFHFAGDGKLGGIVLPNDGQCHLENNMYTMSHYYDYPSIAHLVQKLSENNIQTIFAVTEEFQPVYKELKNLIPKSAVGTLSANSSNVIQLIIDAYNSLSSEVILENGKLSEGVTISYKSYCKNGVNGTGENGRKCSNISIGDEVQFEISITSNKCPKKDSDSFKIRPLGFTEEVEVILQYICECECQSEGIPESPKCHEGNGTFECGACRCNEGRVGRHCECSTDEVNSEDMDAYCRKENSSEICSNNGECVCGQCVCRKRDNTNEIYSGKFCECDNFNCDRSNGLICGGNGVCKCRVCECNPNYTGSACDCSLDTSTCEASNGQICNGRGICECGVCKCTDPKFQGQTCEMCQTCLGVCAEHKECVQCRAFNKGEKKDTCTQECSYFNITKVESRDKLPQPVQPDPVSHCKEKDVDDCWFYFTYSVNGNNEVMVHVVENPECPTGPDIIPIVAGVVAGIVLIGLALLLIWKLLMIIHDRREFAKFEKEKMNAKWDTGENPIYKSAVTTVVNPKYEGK

Compound | IC50 [µM]
COc1cc(CC(=O)N[C@@H](CCSC)C(=O)N[C@@H](CC(=O)O)C(=O)N[C@H](C(=O)N2CCC[C@H]2C(=O)O)C(C)C)ccc1NC(=O)Nc1ccccc1 [Compound 2] ({NHPh-CO}-[X3]MDVP-OH) | < 0.05
CC(C)C[C@H](NC(=O)c1cc2ccccc2cn1)C(=O)N[C@@H](CCC(=O)O)C(=O)N[C@H](C(=O)O)C(C)C [Compound 5] | > 10
CC(C)C[C@H](NC(=O)c1cc2ccccc2cn1)C(=O)N[C@@H](CO)C(=O)N[C@H](C(=O)O)C(C)C [Compound 7] | > 10
CC(C)C[C@H](NC(=O)c1cc2ccccc2cn1)C(=O)N[C@@H](CS)C(=O)N[C@H](C(=O)O)C(C)C [Compound 9] | > 10
CC(C)C[C@H](NC(=O)c1cc2ccccc2cn1)C(=O)N[C@@H](CC(=O)O)C(=O)O [Compound 12] | > 10
CCC(C)C(NC(=O)CCc1ccc(O)cc1)C(=O)NC(CC(=O)O)C(=O)NCC(C)C (stereo not drawn) [Compound 17] | > 10
COC(=O)[C@@H](NC(=O)[C@H](CC(=O)O)NC(=O)[C@H](CC(C)C)N(C)C(=O)CCc1ccc(O)cc1)C(C)C [Compound 18] | 0.05 to 10
COC(=O)[C@@H](NC(=O)[C@H](CC(=O)O)NC(=O)[C@H](CC(C)C)NC(=O)CCc1ccc(O)cc1)C(C)C [Compound 19] | > 10
CC(C)C[C@H](NC(=O)C1Cc2ccccc2CN1)C(=O)N[C@@H](CC(=O)O)C(=O)O (stereo partly drawn) [Compound 23] (HELM PEPTIDE1{[O=C(C1Cc2ccccc2CN1)[*:2]].L.D}$$$$V2.0) | > 10
COC(=O)[C@@H](NC(=O)[C@H](CC(=O)O)NC(=O)[C@H](CC(C)C)N(Cc1ccccc1)C(C)=O)C(C)C [Compound 28] | > 10
COC(=O)[C@@H](NC(=O)[C@H](CC(=O)O)NC(=O)[C@H](CC(C)C)N(CCc1ccccc1)C(C)=O)C(C)C [Compound 29] | > 10
COC(=O)[C@@H](NC(=O)[C@H](CC(=O)O)NC(=O)[C@H](CC(C)C)N(CCc1ccccc1)C(=O)CCc1ccccc1)C(C)C [Compound 30] | > 10
CC(C)C[C@H](NC(=O)Cc1ccccc1)C(=O)N[C@@H](CC(=O)O)C(=O)N[C@H](C(=O)N1CCC[C@H]1C(=O)O)C(C)C [Compound 34] | 0.05 to 10
CC(C)C[C@H](NC(=O)CCc1ccccc1)C(=O)N[C@@H](CC(=O)O)C(=O)N[C@H](C(=O)N1CCC[C@H]1C(=O)O)C(C)C [Compound 36] | > 10
COC(=O)[C@@H]1CCCN1C(=O)[C@@H](NC(=O)[C@H](CC(=O)O)NC(=O)[C@H](CC(C)C)NC(=O)CCc1ccccc1)C(C)C [Compound 37] | > 10
CC(C)C[C@H](NC(=O)CCc1ccc(O)cc1)C(=O)N[C@@H](CC(=O)O)C(=O)N[C@H](C(=O)N1CCC[C@H]1C(=O)O)C(C)C [Compound 38] | > 10
COC(=O)[C@@H]1CCCN1C(=O)[C@@H](NC(=O)[C@H](CC(=O)O)NC(=O)[C@H](CC(C)C)NC(=O)OC(C)(C)C)C(C)C [Compound 40] | > 10
COC(=O)[C@@H]1CCCN1C(=O)[C@@H](NC(=O)[C@H](CC(=O)O)NC(=O)[C@H](CC(C)C)NC(=O)c1ccc2ccccc2n1)C(C)C [Compound 41] | 0.05 to 10
CNC(=O)[C@@H](NC(=O)[C@H](CC(=O)O)NC(=O)[C@H](CC(C)C)N(C)C(=O)Cc1ccc(OC)cc1)C(C)C [Compound 45] | > 10
CNC(=O)[C@@H](NC(=O)[C@H](CC(=O)O)NC(=O)[C@H](CC(C)C)N(C)C(=O)CCc1ccc(O)cc1)C(C)C [Compound 46] | > 10
CNC(=O)[C@@H](NC(=O)[C@H](CC(=O)O)NC(=O)[C@H](CC(C)C)NC(=O)NCc1ccccc1)C(C)C [Compound 47] ({NHBn-CO}-Leu-Asp-Val-NHMe) | > 10
CNC(=O)[C@@H](NC(=O)[C@H](CC(=O)O)NC(=O)[C@H](CC(C)C)NC(=O)c1ccc2ccccc2n1)[C@@H](C)OC [Compound 59] | 0.05 to 10
CC(C)C[C@H](NC(=O)c1ccc2ccccc2n1)C(=O)N[C@@H](CC(=O)O)C(=O)N[C@H](C(=O)N1CCOCC1)[C@@H](C)O [Compound 61] | 0.05 to 10
CC(C)C[C@H](NC(=O)C1(NC(=O)OC(C)(C)C)CCc2ccccc2C1)C(=O)N[C@@H](CC(=O)O)C(=O)N[C@H](C(=O)O)C(C)C (stereo partly drawn) [Compound 63] (HELM PEPTIDE1{[CC(C)(C)OC(=O)[*:2]].[O=C(C1(N[*:1])CCc2ccccc2C1)[*:2]].L.D.V}$$$$V2.0) | > 10
CC(C)C[C@H](NC(=O)CCc1ccccc1)C(=O)N[C@@H](CC(=O)O)C(=O)N[C@H](C(=O)O)C(C)C [Compound 64] (HELM PEPTIDE1{[O=C(CCc1ccccc1)[*:2]].L.D.V}$$$$V2.0) | > 10
CC(C)CC(NC(=O)C(Cc1ccc(O)cc1)NC(=O)OC(C)(C)C)C(=O)NC(CC(=O)O)C(=O)NC(C(=O)O)C(C)C (stereo not drawn) [Compound 66] (Boc-YLDV-OH; configuration not given here) | > 10

Results, then the compound that gave them:

IC50 [µM] | Compound
< 0.05 | COc1cc(CC(=O)N[C@@H](CC(C)C)C(=O)N[C@@H](CC(=O)O)C(=O)N[C@H](C(=O)N2CCC[C@H]2C(=O)O)C(C)C)ccc1NC(=O)Nc1ccccc1 [Compound 1] ({NHPh-CO}-[X3]LDVP-OH)
< 0.05 | COc1nc(CC(=O)N[C@@H](CC(C)C)C(=O)N[C@@H](CC(=O)O)C(=O)N[C@H](C(N)=O)C(C)C)ccc1NC(=O)Nc1ccccc1C [Compound 3]
> 10 | CC(C)CNC(=O)[C@@H](CC(=O)O)NC(=O)[C@H](CC(C)C)NC(=O)CCc1ccc(O)cc1 [Compound 15]
> 10 | COC(=O)[C@H](C(C)C)N(C)C(=O)[C@H](CC(=O)O)NC(=O)[C@H](CC(C)C)NC(=O)CCc1ccc(O)cc1 [Compound 20]
> 10 | COC(=O)[C@@H](NC(=O)[C@H](CC(=O)O)N(C)C(=O)[C@H](CC(C)C)NC(=O)CCc1ccc(O)cc1)C(C)C [Compound 22]
> 10 | CC(C)C[C@H](NC(=O)C1Cc2ccccc2CN1)C(=O)N[C@@H](CCC(=O)O)C(=O)N[C@H](C(=O)O)C(C)C (stereo partly drawn) [Compound 31] (HELM PEPTIDE1{[O=C(C1Cc2ccccc2CN1)[*:2]].L.E.V}$$$$V2.0)
> 10 | CC(C)C[C@H](NC(=O)c1cc2ccccc2cn1)C(=O)N[C@@H](CC(=O)O)C(=O)N[C@H](C(=O)N1CCC[C@H]1C(=O)O)C(C)C [Compound 32]
0.05 to 10 | COC(=O)[C@@H]1CCCN1C(=O)[C@@H](NC(=O)[C@H](CC(=O)O)NC(=O)[C@H](CC(C)C)NC(=O)Cc1ccccc1)C(C)C [Compound 35]
0.05 to 10 | CC(C)CC(NC(=O)Cc1ccccc1)C(=O)NC(CC(=O)O)C(=O)NC(C(=O)N1CCCCC1C(=O)O)C(C)C (stereo not drawn) [Compound 42]
> 10 | CNC(=O)[C@@H](NC(=O)[C@H](CC(=O)O)NC(=O)[C@H](CC(C)C)NC(=O)Nc1ccc(C)cc1)C(C)C [Compound 48]
> 10 | CC(C)C[C@H](NC(=O)c1ccc2ccccc2n1)C(=O)N[C@@H](CC(=O)O)C(=O)N[C@H](C(=O)NC(C)(C)C)[C@@H](C)O [Compound 60]
> 10 | CC(C)C[C@H](NC(=O)OC(C)(C)C)C(=O)N[C@@H](CC(=O)O)C(=O)N[C@H](C(=O)NC(C)(C)C)[C@@H](C)O [Compound 62] (HELM PEPTIDE1{[CC(C)(C)OC(=O)[*:2]].L.D.T.[CC(C)(C)N[*:1]]}$$$$V2.0)
> 10 | CC(C)C[C@H](NC(=O)C(Cc1ccc(O)cc1)N(S(C)(=O)=O)S(C)(=O)=O)C(=O)N[C@@H](CC(=O)O)C(=O)N[C@H](C(=O)O)C(C)C (stereo partly drawn) [Compound 65]
